Assay results taken from patent US7572828B2, “Identification of anti-HIV compounds inhibiting virus assembly and binding of nucleocapsid protein to nucleic acid” (The United States of America as represented by the …, priority 2002, dated 2009).

What was measured:
HIV = assay: XTT-cytoprotection assay, cell based anti-HIV screening in CEM-SS cells; conditions: for XTT: protection from HIV infection
Source text: One exemplary means to determine antiviral activity is with CEM-SS cells and virus (e.g., HIV-1RF) (MOI=0.01) using the XTT (2,3-bis[2-methoxy- 4-nitro-5-sulfophenyl]-5- [(phenylamino)carbonyl]-2H-tetrazolium hydroxide) cytoprotection assay (see, e.g., Weislow, et al, J. Natl. Canc. Inst. 81: 577-586, 1989; Rice PNAS 90:9721-9724, 1993; and Rice Antimicrob. Agents Chemother. 41:419-426, 1997). Briefly, cells are infected with HIV-1RF (or other virus to be tested) in the presence of various dilutions of test compounds (antimony or diphenyl compounds and controls). The cultures are incubated for seven days. […] The cell death is measured by XTT dye reduction. XTT is a soluble tetrazolium dye that measures mitochondrial energy output, similar to MTT. Positive controls using dextran sulfate (an attachment inhibitor) or 3′-Azido -2′-3′-dideoxythymidine, AZT (a reverse transcriptase inhibitor) are added to each assay. Individual assays are done in duplicate using a sister plate method.
Effective antiviral concentrations providing 50% cytoprotection (EC50), and cellular growth inhibitory concentrations causing 50% cytotoxicity (IC50) are calculated.
Cell based anti-HIV screening was performed in CEM-SS cells, using an XTT-cytoprotection assay (see, e.g., Weislow, et al, J. Natl. Canc. Inst. 81: 577-586, 1989; Rice PNAS 90:9721-9724, 1993; and Rice Antimicrob. Agents Chemother. 41:419-426, 1997)).

p24 = conditions: unit not given
NC-p7 protein = biological target: T1, NC-p7 protein (Human immunodeficiency virus type 1 group M subtype B, UniProt P04591); assay: High throughput screen: disruption of association of viral NC-p7 protein with a biotinylated 28 base oligonucleotide; type: binding, HIV-1; conditions: 10 μM of test compound; hit threshold 100% inhibition
T1 construct: nucleocapsid p7 (NCp7) protein portion of the polyprotein
Description: A high throughput screen was used to detect small molecules that disrupted the association of viral NC-p7 protein with an oligonucleotide. The assay was performed using a Tomtec Quadra robotic system. NC protein was immobilized on Costar (Corning, N.Y.) high-bind polystyrene 96 well plates by incubating 100 μl 250 nM NC-p7 in phosphate buffered saline (PBS)/10 μM zinc chloride/10 mM β-mercaptoethanol/0.05% Tween overnight at 4° C. 200 μl of 2% BSA in PBS/10 μM zinc chloride/10 mM β-mercaptoethanol/0.05% Tween was added and incubated at room temperature for 1-2 hours in order to block the plates. The plates were then washed 2 times with 200 μl PBS/10 μM zinc chloride/10 mM β-mercaptoethanol/0.05% Tween using a Titertek M96V plate washer and stored overnight at 4° C. 5 nM biotinylated 28 base oligonucleotide (5′ […] 3′) in PBS/10 μM zinc chloride/10 mM β-mercaptoethanot/0.05% Tween was added to each well followed by 10 μM of test compound (in 20% dimethyl sulphoxide) from the Diversity Set and allowed to incubate at room temperature for 1 hour. Plates were then washed 3 times with 200 μl PBS/0.05% Tween. Binding of the biotinylated 28 mer was measured by adding 100 μl 1:20000 dilution of nutravidin-horse radish peroxidase (stock 0.8 mg/ml, from Pierce Chemical Co. Rockford, Ill.) and incubating at room temperature for 1 hour. The plates were washed 3 times with 200 μl PBS/0.05% Tween. Plates were developed by adding 100 μl of Supersignal (Pierce Chemical Co. Rockford, Ill.) and bioluminescence was measured in a Wallac Victor plate reader. […] The hit threshold was set at 100% inhibition.

Gag precursor protein = biological target: T2, Gag precursor protein (Human immunodeficiency virus type 1 group M subtype B, UniProt P04591); assay: Secondary screen: disruption of in vitro assembly of Gag precursor protein into virus-like particles; type: biochemical; conditions: for disrupted viral assembly: artificial viral particles from recombinant Gag protein and tRNA; for EC50: in vitro, assay not given
T2 construct: human immunodeficiency virus type 1 Gag protein lacking the p6 domain; made in house
Source text: A secondary screen was used to identify small molecules that disrupt in vitro assembly of Gag precursor protein into virus-like particles. Artificial viral particles were assembled from recombinant Gag protein and tRNA as previously described (see, e.g., Campbell & Rein, “In vitro assembly properties of human immunodeficiency virus type 1 Gag protein lacking the p6 domain” J. Virol. 73: 2270-2279, 1999). […]

CEM-SS Leukemia cells = assay: Uptake of radio-labelled compound in cells; type: in vitro ADME
Tolerability in mice = type: in vivo

O=C(NCCO)c1ccc[c]([Sb](=[O])([OH])[OH])c1 [NSC 13782]
activity in the cell based assay (XTT cytoprotection ranking) (HIV): exhibited activity

O=C(O)c1cc[c]([Sb](=[O])([OH])[OH])cc1[N+](=O)[O-] [NSC 13755]
p24 assay (p24): 0.21 | Active compounds identified in high throughput screen (disruption of NC-p7/oligonucleotide association) (NC-p7 protein): Active | activity in the cell based assay (XTT cytoprotection ranking) (HIV): active | XTT (HIV): A (active (80-100% protection from HIV infection)) | disrupted viral assembly (Gag precursor protein): disrupted viral assembly | EC50 (Gag precursor protein): 6.15 µM

COC(=O)c1ccc[c]([Sb](=[O])([OH])[OH])c1 [NSC 13771]
p24 assay (p24): 0.2 | XTT (HIV): I (inactive (0-49% protection)) | disrupted viral assembly (Gag precursor protein): disrupted viral assembly | EC50 (Gag precursor protein): 5.5 µM

O=C(O)/C=C/c1ccc[c]([Sb](=[O])([OH])[OH])c1 [NSC 13778]
uptake of the compound in cells (CEM-SS Leukemia cells): energy-dependent uptake | p24 assay (p24): 0.11 | Active compounds identified in high throughput screen (disruption of NC-p7/oligonucleotide association) (NC-p7 protein): Active | tolerability in vivo (Tolerability in mice): tolerated in vivo | activity in the cell based assay (XTT cytoprotection ranking) (HIV): active | XTT (HIV): A (active (80-100% protection from HIV infection)) | disrupted viral assembly (Gag precursor protein): disrupted viral assembly | EC50 (Gag precursor protein): 3.8 µM

CCOC(=O)CCCc1cc[c]([Sb](=[O])([OH])[OH])cc1 [NSC 13793]
p24 assay (p24): 0.14 | XTT (HIV): I (inactive (0-49% protection)) | disrupted viral assembly (Gag precursor protein): disrupted viral assembly | EC50 (Gag precursor protein): 3.25 µM

O=C(O)c1cc[c]([Sb](=[O])([OH])[OH])cc1 [NSC 13760]
p24 assay (p24): 0.29 | activity in the cell based assay (XTT cytoprotection ranking) (HIV): active | XTT (HIV): A (active (80-100% protection from HIV infection)) | disrupted viral assembly (Gag precursor protein): disrupted viral assembly | EC50 (Gag precursor protein): 1.15 µM

O=C(O)c1ccc[c]([Sb](=[O])([OH])[OH])c1 [NSC 13759]
p24 assay (p24): 0.19 | activity in the cell based assay (XTT cytoprotection ranking) (HIV): active | XTT (HIV): A (active (80-100% protection from HIV infection)) | disrupted viral assembly (Gag precursor protein): disrupted viral assembly | EC50 (Gag precursor protein): 1.5 µM

NC(=O)c1ccc[c]([Sb](=[O])([OH])[OH])c1 [NSC 13765]
p24 assay (p24): 0.41 | activity in the cell based assay (XTT cytoprotection ranking) (HIV): active | XTT (HIV): A (active (80-100% protection from HIV infection)) | disrupted viral assembly (Gag precursor protein): disrupted viral assembly | EC50 (Gag precursor protein): 3.75 µM

O=C(O)c1ccc(C(=O)c2ccccc2C(=O)O)cc1C(=O)O [NSC 28620]
Active compounds identified in high throughput screen (disruption of NC-p7/oligonucleotide association) (NC-p7 protein): Active | activity in the cell based assay (XTT cytoprotection ranking) (HIV): active | disrupted viral assembly (Gag precursor protein): disrupted viral assembly

O=S(=O)(O)c1cc[c]([Sb](=[O])([OH])[OH])cc1 [NSC 13746]
Active compounds identified in high throughput screen (disruption of NC-p7/oligonucleotide association) (NC-p7 protein): Active | activity in the cell based assay (XTT cytoprotection ranking) (HIV): active | XTT (HIV): A (active (80-100% protection from HIV infection)) | disrupted viral assembly (Gag precursor protein): disrupted viral assembly | EC50 (Gag precursor protein): 10 µM
